Experimental data from patent US9512481B2, “Polymorphisms in the PDE3A gene” (The Regents of the University of Colorado, a body corporate, priority 2009, dated 2016).

Legend:
PDE3A promoter = assay: PDE3A Ins or Del promoter-luciferase constructs transfected into NRVMs; assay type: cell-based, rat; details: for promoter response: Del construct with deletion of the CREB binding site (CRE) at −1070, NRVMs; for promoter (transcriptional) activity: NRVMs
PDE3A mRNA = PDE3A mRNA abundance in LVs explanted from end-stage HF patients, by PDE3A promoter Ins/Del genotype; assay type: in vivo, human
[1] = tested on: Evi-1 transcription factor mRNA; assay: Evi-1 mRNA expression in explanted left ventricular samples from heart failure patients treated with enoximone; assay type: in vivo, human; details: explanted LV samples from HF patients treated with enoximone; compared to non-failing, no enoximone

Nc1ncnc2c1ncn2[C@@H]1O[C@@H]2COP(=O)(O)O[C@H]2[C@H]1O [cAMP, cyclic AMP]
induction of Evi-1 (Evi-1): 16 fold

CCCC(=O)Nc1ncnc2c1ncn2[C@@H]1O[C@@H]2COP(=O)(O)O[C@H]2[C@H]1OC(=O)CCC [dbcAMP]
promoter response (PDE3A promoter): abolishes the promoter response

CSc1ccc(C(=O)c2[nH]c(=O)[nH]c2C)cc1 [enoximone]
promoter response (PDE3A promoter): abolishes the promoter response
PDE3A mRNA abundance (PDE3A mRNA; Del carriers (homozygous or heterozygous for PDE3A Del, n=9) treated with enoximone, compared to Del patients not receiving enoximone (n=19), p<0.001): 2.1±0.3 fold
PDE3A gene expression (PDE3A mRNA; patients homozygous for the Ins (Ins/Ins) treated with enoximone, p=0.7): 1.1±0.3 fold
mRNA expression of Evi-1 [1]: increased

CC(C)NCC(O)c1ccc(O)c(O)c1 (centres unmarked) [isoproterenol]
promoter (transcriptional) activity (PDE3A promoter; Del PDE3A promoter-luciferase construct (lacks the 29 nucleotide sequence)): increased promoter activity
promoter (transcriptional) activity (PDE3A promoter; Ins PDE3A promoter-luciferase construct (29 nucleotide sequence present)): does not go up
